From patent US10316017B2, “COT modulators and methods of use thereof” (Gilead Sciences, Inc., priority 2015, dated 2019)

Assays:
[1] = tested on: TNFα production in LPS-stimulated human monocytes; experiment: Cot Monocyte TNFα Cell Based Assay; details: Homo sapiens, Monocyte, TNFα in LPS-stimulated human monocytes; read-out: EC50 TNF
Method in brief: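 Cells at 5,000/well were pretreated with compound for 1 h at 37 °C (0.5% DMSO final), then stimulated with 50 pg/ml LPS for 4 h at 37 °C. Supernatant TNFα was measured by two-antibody TR-FRET after overnight room-temperature incubation; values are percent of control between unstimulated and stimulated wells.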

[2] = target: T1, human Cot catalytic domain (30-397 amino acids) (Homo sapiens, UniProt P41279); experiment: High Throughput Cot Biochemical Assay (KinEASE TR-FRET); details: Cot KinEASE TR-FRET (HTRF) biochemical assay, 400 μM ATP; read-out: IC50 HTRF
T1 construct: Purified recombinant human Cot catalytic domain (30-397 amino acids) was purchased from Cama Biosciences; purchased Cama Biosciences (so in the source)
Method in brief: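 Reaction of 5 nM recombinant human Cot catalytic domain (aa 30-397) with 1 μM STK3 peptide (XL665-labeled) and 400 μM ATP in 10 mM MOPS pH 7.0, 10 mM MgOAc, 1 mM DTT, 0.5 mg/mL BSA, 0.1% DMSO. Phosphopeptide detected by TR-FRET with europium anti-phospho antibody.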

T1 sequence (P41279 30-397): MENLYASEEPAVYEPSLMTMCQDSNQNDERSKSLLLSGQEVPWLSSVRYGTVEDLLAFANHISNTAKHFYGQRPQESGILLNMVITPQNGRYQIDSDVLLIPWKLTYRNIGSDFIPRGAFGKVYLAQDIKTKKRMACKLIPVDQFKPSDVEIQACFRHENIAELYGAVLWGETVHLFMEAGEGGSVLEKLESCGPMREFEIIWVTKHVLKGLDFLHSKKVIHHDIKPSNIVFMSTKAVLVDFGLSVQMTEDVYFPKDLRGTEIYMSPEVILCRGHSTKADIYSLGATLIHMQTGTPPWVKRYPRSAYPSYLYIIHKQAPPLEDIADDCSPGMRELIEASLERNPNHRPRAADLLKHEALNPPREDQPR

EC50 [1] [nM] | IC50 [2] [nM] | SMILES
1340 | 114 | [2H][C@](Nc1cc(Cl)c2ncc(C#N)c(Nc3cccc(Cl)c3C)c2c1)(c1ccc(F)cc1)c1cn(C2CC2)nn1 [Example 159, (S)-8-chloro-4-((3-chloro-2-methylphenyl)amino)-6-(((1-cyclopropyl-1H-1,2,3-triazol-4-yl)(4-fluorophenyl)methyl-d)amino)quinoline-3-carbonitrile]
3260 | 496 | [2H][C@](Nc1cc(Cl)c2ncc(C#N)c(Nc3ccccc3OC)c2c1)(c1ccc(F)cc1)c1cn(C2CC2)nn1 [Example 160, (S)-8-chloro-6-(((1-cyclopropyl-1H-1,2,3-triazol-4-yl)(4-fluorophenyl)methyl-d)amino)-4-((2-methoxyphenyl)amino)quinoline-3-carbonitrile]
> 10000 | 941 | [2H][C@](Nc1cc(Cl)c2ncc(C#N)c(N[C@H](c3ccccc3)[C@H]3C[C@@H]3C#N)c2c1)(c1ccc(F)cc1)c1cn(C2CC2)nn1 [Example 161, 8-chloro-4-(((S)-((1S,2S)-2-cyanocyclopropyl) (phenyl)methyl)amino)-6-(((S)-(1-cyclopropyl-1H-1,2,3-triazol-4-yl)(4-fluorophenyl)methyl-d)amino) quinoline-3-carbonitrile]
> 10000 | 7890 | [2H][C@](Nc1cc(Cl)c2ncc(C#N)c(N[C@H](c3ccccc3)[C@@H]3C[C@H]3C#N)c2c1)(c1ccc(F)cc1)c1cn(C2CC2)nn1 [Example 162, 8-chloro-4-(((S)-((1R,2R)-2-cyanocyclopropyl) (phenyl)methyl)amino)-6-(((S)-(1-cyclopropyl-1H-1,2,3-triazol-4-yl)(4-fluorophenyl)methyl-d)amino)quinoline-3-carbonitrile]
170 | 3 | [2H][C@](Nc1cc(Cl)c2ncc(C#N)c(Nc3cccc(Cl)c3OC)c2c1)(c1ccc(F)cc1)c1cn(C2CC2)nn1 [Example 163, (S)-8-chloro-4-((3-chloro-2-methoxyphenyl)amino)-6-(((1-cyclopropyl-1H-1,2,3-triazol-4-yl)(4-fluorophenyl)methyl-d)amino)quinoline-3-carbonitrile]
15 | 1 | [2H][C@](Nc1cc(F)c2ncc(C#N)c(N[C@H](CCC#N)c3ccccc3)c2c1)(c1cccc(C#N)c1)c1cn(C2CC2)nn1 [Example 164, 4-(((R)-3-cyano-1-phenylpropyl)amino)-6-(((S)-(3-cyanophenyl)(1-cyclopropyl-1H-1,2,3-triazol-4-yl)methyl-d)amino)-8-fluoroquinoline-3-carbonitrile]
6270 | 2090 | [2H][C@](Nc1cc(F)c2ncc(C#N)c(N[C@@H](CCC#N)c3ccccc3)c2c1)(c1cccc(C#N)c1)c1cn(C2CC2)nn1 [Example 165, 4-(((S)-3-cyano-1-phenylpropyl)amino)-6-(((S)-(3-cyanophenyl) (1-cyclopropyl-1H-1,2,3-triazol-4-yl)methyl-d)amino)-8-fluoroquinoline-3-carbonitrile]
979 | 61 | [2H][C@](Nc1cc(Cl)c2ncc(C#N)c(N[C@H](CCN3CCCCC3)c3ccccc3)c2c1)(c1ccc(F)cc1)c1cn(C2CC2)nn1 [Example 166, 8-chloro-6-(((1-cyclopropyl-1H-1,2,3-triazol-4-yl)(4-fluorophenyl)methyl-d)amino)-4-(((R)-1-phenyl-3-(piperidin-1-yl)propyl)amino)quinoline-3-carbonitrile]
> 10000 | 171 | [2H][C@](Nc1cc(Cl)c2ncc(C#N)c(N[C@H](CCN3CCCC3)c3ccccc3)c2c1)(c1ccc(F)cc1)c1cn(C2CC2)nn1 [Example 167, 8-chloro-6-(((1-cyclopropyl-1H-1,2,3-triazol-4-yl) (4-fluorophenyl)methyl-d)amino)-4-(((R)-1-phenyl-3-(pyrrolidin-1-yl)propyl)amino) quinoline-3-carbonitrile]

Second part, the compound before the results:

SMILES | EC50 [1] [nM] | IC50 [2] [nM]
[2H][C@](Nc1cc(Cl)c2ncc(C#N)c(NC3[C@H]4COC[C@@H]34)c2c1)(c1ccc(F)cc1)c1cn(C2CC2)nn1 (stereo partly drawn) [Example 142, 4-(((1R,5S)-3-oxabicyclo[3.1.0]hexan-6-yl)amino)-8-chloro-6-(((S)-(1-cyclopropyl-1H-1,2,3-triazol-4-yl)(4-fluorophenyl)methyl-d)amino)quinoline-3-carbonitrile] | 77 | 8
[2H][C@](Nc1cc(Cl)c2ncc(C#N)c(NC3CC34CCCCC4)c2c1)(c1ccc(F)cc1)c1cn(C2CC2)nn1 (stereo partly drawn) [Example 143, 8-chloro-6-(((S)-(1-cyclopropyl-1H-1,2,3-triazol-4-yl)(4-fluorophenyl)methyl-d)amino)-4-(spiro[2.5]octan-1-ylamino)quinoline-3-carbonitrile] | 1170 | 99
[2H][C@](Nc1cc(Cl)c2ncc(C#N)c(N[C@@H]3CCOCC3(C)C)c2c1)(c1ccc(F)cc1)c1cn(C2CC2)nn1 [Example 146, 8-chloro-6-(((S)-(1-cyclopropyl-1H-1,2,3-triazol-yl)(4-fluorophenyl)methyl-d)amino)-4-(((R)-3,3-dimethyltetrahydro-2H-pyran-4-yl)amino) quinoline-3-carbonitrile] | 895 | 95
[2H][C@](Nc1cc(Cl)c2ncc(C#N)c(NCCc3nccs3)c2c1)(c1ccc(F)cc1)c1cn(C2CC2)nn1 [Example 147, (S)-8-chloro-6-(((1-cyclopropyl-1H-1,2,3-triazol-4-yl)(4-fluorophenyl)methyl-d)amino)-4-((2-(thiazol-2-yl)ethyl)amino) quinoline-3-carbonitrile] | 3610 | 254
[2H][C@](Nc1cc(Cl)c2ncc(C#N)c(NCCc3ccn(C)n3)c2c1)(c1ccc(F)cc1)c1cn(C2CC2)nn1 [Example 148, (S)-8-chloro-6-(((1-cyclopropyl-1H-1,2,3-triazol-4-yl)(4-fluorophenyl)methyl-d)amino)-4-((2-(1-methyl-1H-pyrazol-3-yl)ethyl)amino) quinoline-3-carbonitrile] | 8670 | 2140
[2H][C@](Nc1cc(Cl)c2ncc(C#N)c(NCCc3ccnn3C)c2c1)(c1ccc(F)cc1)c1cn(C2CC2)nn1 [Example 149, (S)-8-chloro-6-(((1-cyclopropyl-1H-1,2,3-triazol-4-yl)(4-fluorophenyl)methyl-d)amino)-4-((2-(1-methyl-1H-pyrazol-5-yl)ethyl)amino) quinoline-3-carbonitrile] | 2110 | 162
[2H][C@](Nc1ccc2nc(F)c(C#N)c(NCC(C)(C)C)c2c1)(c1ccc(F)cc1)c1cn(C2CC2)nn1 [Example 151, (S)-6-(((1-cyclopropyl-1H-1,2,3-triazol-4-yl)(4-fluorophenyl)methyl-d)amino)-2-fluoro-4-(neopentylamino) quinoline-3-carbonitrile] | 5870 | > 10000
[2H][C@@](Nc1cc(C#N)c2ncc(C#N)c(NCC(C)(C)C)c2c1)(c1cn(C2CC2)nn1)c1ccccc1Cl [Example 152, (S)-6-(((2-chlorophenyl) (1-cyclopropyl-1H-1,2,3-triazol-4-yl)methyl-d)amino)-4-(neopentylamino) quinoline-3,8-dicarbonitrile] | 213 | 7
[2H][C@](Nc1cc(Cl)c2ncc(C#N)c(NC34CC(C3)C4)c2c1)(c1ccc(F)cc1)c1cn(C2CC2)nn1 [Example 153, (S)-4-(bicyclo[1.1.1]pentan-1-ylamino)-8-chloro-6-(((1-cyclopropyl-1H-1,2,3-triazol-4-yl)(4-fluorophenyl)methyl-d)amino)quinoline-3-carbonitrile] | 892 | 196
[2H][C@](Nc1cc(Cl)c2ncc(C#N)c(N[C@@H]3C[C@H]3C(F)(F)F)c2c1)(c1ccc(F)cc1)c1cn(C2CC2)nn1 [Example 154, 8-chloro-6-(((S)-(1-cyclopropyl-1H-1,2,3-triazol-4-yl)(4-fluorophenyl)methyl-d)amino)-4-(((1R,2R)-2-(trifluoromethyl)cyclopropyl)amino)quinoline-3-carbonitrile] | 576 | 39
[2H][C@](Nc1cc(Cl)c2ncc(C#N)c(N[C@@H]3C[C@H]3CC)c2c1)(c1ccc(F)cc1)c1cn(C2CC2)nn1 [Example 155, 8-chloro-6-(((S)-(1-cyclopropyl-1H-1,2,3-triazol-4-yl)(4-fluorophenyl)methyl-d)amino)-4-(((1R,2R)-2-ethylcyclopropyl)amino)quinoline-3-carbonitrile] | 348 | 36
[2H][C@](Nc1cc(Cl)c2ncc(C#N)c(NC3CC3(C)C)c2c1)(c1ccc(F)cc1)c1cn(C2CC2)nn1 (stereo partly drawn) [Example 156, 8-chloro-6-(((S)-(1-cyclopropyl-1H-1,2,3-triazol-4-yl)(4-fluorophenyl)methyl-d)amino)-4-((2,2-dimethylcyclopropyl)amino)quinoline-3-carbonitrile] | 477 | 30
[2H][C@](Nc1cc2c(NCC(C)(C)C)c(C#N)cnc2c(C)c1F)(c1ccc(F)cc1)c1cn(C2CC2)nn1 [Example 157, 6-(((1-cyclopropyl-1H-1,2,3-triazol-4-yl)(4-fluorophenyl)methyl-d)amino)-7-fluoro-8-methyl-4-(neopentylamino) quinoline-3-carbonitrile] | > 10000 | 3740
